“Also recorded” adds a separate entry of the source.
Biological target: H275Y mutant A(H1N1)pdm09 virus, neuraminidase (NA) (Influenza A virus, UniProt A0A0X9QTS2, H275Y)

`CCOC(=O)C1=C[C@@H](OC(CC)CC)[C@H](NC(C)=O)[C@@H](N)C1` [Oseltamivir, oseltamivir] was tested, and the susceptibility interpretation was “highly reduced inhibition; also recorded: high reduced inhibition”.

With `CCC(CC)[C@H](NC(C)=O)[C@@H]1[C@H](O)[C@@H](C(=O)O)C[C@H]1N=C(N)N` [Peramivir, peramivir] the IC50 was 21.9 nM and the susceptibility interpretation was “highly reduced inhibition; also recorded: high reduced inhibition”.

Reference: paper PMC7055873 (PLoS ONE, 2020)
